In ChEMBL document CHEMBL4814006, “Novel amino substituted tetracyclic imidazo[4,5-b]pyridine derivatives: Design, synthesis, antiproliferative activity and DNA/RNA binding study” (Eur J Med Chem, 2021):
pIC50: −log10 of the molar value. Activity calls are given as the source filed them. The calls are words filed in the database; no cut-off is given here.

What was measured:
NCI-H460 = experiment: Antiproliferative activity against human NCI-H460 cells assessed as inhibition of cell growth incubated for 72 hrs by MTT assay; format: functional, cell-based; conditions: NCI-H460, 72 h
HCT-116 = experiment: Antiproliferative activity against human HCT-116 cells assessed as inhibition of cell growth incubated for 72 hrs by MTT assay; format: functional, cell-based; conditions: HCT-116, 72 h
MCF7 = experiment: Antiproliferative activity against human MCF7 cells assessed as inhibition of cell growth incubated for 72 hrs by MTT assay; format: functional, cell-based; conditions: MCF7, 72 h
Quadruplex DNA [1] = experiment: Binding affinity to human Tel22 G quadruplex DNA assessed as ratio of fluorescence intensity of compound-polynucleotide complex to fluorescence intensity of compound in sodium cacodylate buffer at pH 7 at binding stoichiometry ratio of 1:1 by fluorescence spectroscopy; format: nucleic-acid assay
[2] = tested on: Poly(dG-dC)oligonucleotide; experiment: Binding affinity to poly(dGdC)2 DNA (unknown origin) assessed as ratio of bound compound to polynucleotide phosphate in sodium cacodylate buffer at pH 7 by fluorescence spectroscopy based Scatchard method; format: nucleic-acid assay
[3] = tested on: Poly(dA-dU)oligonucleotide; experiment: Binding affinity to polyA-polyU RNA (unknown origin) assessed as ratio of bound compound to polynucleotide phosphate in sodium cacodylate buffer at pH 7 by fluorescence spectroscopy based Scatchard method; format: nucleic-acid assay
[4] = tested on: Poly(dA-dT)oligonucleotide; experiment: Binding affinity to poly(dAdT)2 DNA (unknown origin) in sodium cacodylate buffer at pH 7 by CD spectroscopy; format: nucleic-acid assay
[5] = tested on: Poly(dA-dT)oligonucleotide; experiment: Binding affinity to poly(dAdT)2 DNA (unknown origin) assessed as ratio of bound compound to polynucleotide phosphate in sodium cacodylate buffer at pH 7 by fluorescence spectroscopy based Scatchard method; format: nucleic-acid assay
[6] = tested on: Poly(dG-dC)oligonucleotide; experiment: Binding affinity to poly(dGdC)2 DNA (unknown origin) assessed as binding constant in sodium cacodylate buffer at pH 7 by fluorescence spectroscopy; format: nucleic-acid assay
Quadruplex DNA [7] = experiment: Binding affinity to human Tel22 G quadruplex DNA assessed as binding constant in sodium cacodylate buffer at pH 7 at binding stoichiometry ratio of 1:1 by fluorescence spectroscopy; format: nucleic-acid assay
[8] = tested on: Poly(dA-dU)oligonucleotide; experiment: Binding affinity to polyA-polyU RNA (unknown origin) assessed as ratio of fluorescence intensity of compound-polynucleotide complex to fluorescence intensity of compound in sodium cacodylate buffer at pH 7 by fluorescence spectroscopy based Scatchard method; format: nucleic-acid assay
[9] = tested on: Poly(dG-dC)oligonucleotide; experiment: Binding affinity to poly(dGdC)2 DNA (unknown origin) in sodium cacodylate buffer at pH 7 by CD spectroscopy; format: nucleic-acid assay
Calf thymus DNA [10] = experiment: Binding affinity to calf thymus DNA assessed as ratio of bound compound to polynucleotide phosphate in sodium cacodylate buffer at pH 7 by fluorescence spectroscopy based Scatchard analysis; conditions: Bos taurus
Calf thymus DNA [11] = experiment: Binding affinity to calf thymus DNA assessed as change in melting temperature in sodium cacodylate buffer at pH 7 at compound:polynucleotide concentration ratio of 0.3 by UV/Vis spectrophotometric analysis; format: nucleic-acid assay; conditions: Bos taurus
HEK293 = experiment: Cytotoxicity against human HEK293 cells assessed as inhibition of cell growth incubated for 72 hrs by MTT assay; format: cell-based; conditions: HEK293, 72 h
Calf thymus DNA [12] = experiment: Binding affinity to calf thymus DNA assessed as ratio of fluorescence intensity of compound-polynucleotide complex to fluorescence intensity of compound in sodium cacodylate buffer at pH 7 by fluorescence spectroscopy based Scatchard method; conditions: Bos taurus
[13] = tested on: Poly(dA-dU)oligonucleotide; experiment: Binding affinity to polyA-polyU RNA (unknown origin) in sodium cacodylate buffer at pH 7 by CD spectroscopy; format: nucleic-acid assay
[14] = tested on: Poly(dA-dU)oligonucleotide; experiment: Binding affinity to polyA-polyU RNA (unknown origin) assessed as binding constant in sodium cacodylate buffer at pH 7 by fluorescence spectroscopy; format: nucleic-acid assay
[15] = tested on: Poly(dA-dT)oligonucleotide; experiment: Binding affinity to poly(dAdT)2 DNA (unknown origin) assessed as change in melting temperature in sodium cacodylate buffer at pH 7 at compound:polynucleotide concentration ratio of 0.3 by UV/Vis spectrophotometric analysis; format: nucleic-acid assay
Calf thymus DNA [16] = experiment: Binding affinity to calf thymus DNA assessed as binding constant in sodium cacodylate buffer at pH 7 by fluorescence spectroscopy; conditions: Bos taurus
[17] = tested on: Poly(dA-dT)oligonucleotide; experiment: Binding affinity to poly(dAdT)2 DNA (unknown origin) assessed as ratio of fluorescence intensity of compound-polynucleotide complex to fluorescence intensity of compound in sodium cacodylate buffer at pH 7 by fluorescence spectroscopy based Scatchard method; format: nucleic-acid assay
[18] = tested on: Poly(dA-dU)oligonucleotide; experiment: Binding affinity to polyA-polyU RNA (unknown origin) assessed as change in melting temperature in sodium cacodylate buffer at pH 7 at compound:polynucleotide concentration ratio of 0.3 by UV/vis spectrophotometric analysis; format: nucleic-acid assay
[19] = tested on: Poly(dG-dC)oligonucleotide; experiment: Binding affinity to poly(dGdC)2 DNA (unknown origin) assessed as ratio of fluorescence intensity of compound-polynucleotide complex to fluorescence intensity of compound in sodium cacodylate buffer at pH 7 by fluorescence spectroscopy based Scatchard method; format: nucleic-acid assay
[20] = tested on: Poly(dA-dT)oligonucleotide; experiment: Binding affinity to poly(dAdT)2 DNA (unknown origin) assessed as binding constant in sodium cacodylate buffer at pH 7 by fluorescence spectroscopy; format: nucleic-acid assay
Quadruplex DNA [21] = experiment: Binding affinity to human Tel22 G quadruplex DNA assessed as change in melting temperature in sodium cacodylate buffer at pH 7 by UV/Vis spectrophotometric analysis; format: nucleic-acid assay
Quadruplex DNA [22] = experiment: Binding affinity to human Tel22 G quadruplex DNA in sodium cacodylate buffer at pH 7 by CD spectroscopy; format: nucleic-acid assay
Quadruplex DNA [23] = experiment: Binding affinity to human Tel22 G quadruplex DNA assessed as ratio of fluorescence intensity of compound-polynucleotide complex to fluorescence intensity of compound in sodium cacodylate buffer at pH 7 at binding stoichiometry ratio of 1:2 by fluorescence spectroscopy; format: nucleic-acid assay
Quadruplex DNA [24] = experiment: Binding affinity to human Tel22 G quadruplex DNA assessed as binding constant in sodium cacodylate buffer at pH 7 at binding stoichiometry ratio of 1:2 by fluorescence spectroscopy; format: nucleic-acid assay

In the case of `N#Cc1cc2ccc(F)cc2n2c1nc1cccnc12`, the pIC50 (NCI-H460) was at most 4.00, the pIC50 (HCT-116) was 5.30 and the pIC50 (MCF7) was at most 4.00.
`N#Cc1cc2ccc(F)cc2n2c1nc1ncccc12` showed a pIC50 (NCI-H460) of at most 4.00, a pIC50 (HCT-116) of at most 4.00 and a pIC50 (MCF7) of at most 4.00.
For `CN(C)CCCNc1ccc2cc(C#N)c3nc4cccnc4n3c2c1`, the Ratio (Quadruplex DNA [1]) was 0.7, the Ratio [2] was 0.2 and the Ratio [3] was 0.1. The pIC50 (NCI-H460) was 6.40, the Activity [4] was “Active” and the pIC50 (HCT-116) was 6.40. For the same molecule, the Ratio [5] was 0.2, the pIC50 (MCF7) was 6.15 and the log Ks [6] was 5.8. For the same molecule, the log Ks (Quadruplex DNA [7]) was 5.48, the Ratio [8] was 0.8 and the Activity [9] was “Active”. For the same molecule, the Ratio (Calf thymus DNA [10]) was 0.6, the ΔTm (Calf thymus DNA [11]) was 6.6 °C and the pIC50 (HEK293) was 6.52. The Ratio (Calf thymus DNA [12]) was 0.5, the Activity [13] was “Active” and the log Ks [14] was 6.3. It also gave a ΔTm [15] of 18.2 °C, a log Ks (Calf thymus DNA [16]) of 5.5 and a Ratio [17] of 0.7. It also gave a ΔTm [18] of 9.5 °C, a Ratio [19] of 0.4 and a log Ks [20] of 6.9. For the same molecule, the ΔTm (Quadruplex DNA [21]) was 1.9 °C and the Activity (Quadruplex DNA [22]) was “Active”.
Molecule `CN(C)CCCNc1ccc2cc(C#N)c3nc4ncccc4n3c2c1` has a Ratio (Quadruplex DNA [1]) of 0.66, a Ratio [2] of 0.4 and a Ratio [3] of 0.4. For the same molecule, the pIC50 (NCI-H460) was 4.96, the Activity [4] was “Active” and the pIC50 (HCT-116) was 5.64. The Ratio [5] was 0.4, the pIC50 (MCF7) was 4.92 and the log Ks [6] was 5.6. The log Ks (Quadruplex DNA [7]) was 5.35, the Ratio [8] was 0.8 and the Activity [9] was “Active”. The Ratio (Calf thymus DNA [10]) was 0.4, the ΔTm (Calf thymus DNA [11]) was 4.2 °C and the pIC50 (HEK293) was 5.40. The Ratio (Calf thymus DNA [12]) was 0.5, the Activity [13] was “Active” and the log Ks [14] was 5.5. For the same molecule, the ΔTm [15] was 9.9 °C, the log Ks (Calf thymus DNA [16]) was 6 and the Ratio [17] was 0.8. For the same molecule, the ΔTm [18] was 4.5 °C, the Ratio [19] was 0.4 and the log Ks [20] was 6.4. The ΔTm (Quadruplex DNA [21]) was 2 °C and the Activity (Quadruplex DNA [22]) was “Active”.
Work on `CC(C)CNc1ccc2cc(C#N)c3nc4ncccc4n3c2c1` yielded a pIC50 (NCI-H460) of 4.92, a pIC50 (HCT-116) of 5.52 and a pIC50 (MCF7) of 5.52.
Molecule `N#Cc1c(N2CCNCC2)c2ccccc2n2c1nc1cccnc12` has a pIC50 (NCI-H460) of 5.74, a pIC50 (HCT-116) of 5.44 and a pIC50 (MCF7) of 5.33.
For `N#Cc1c(Cl)c2ccc(F)cc2n2c1nc1ncccc12`, the pIC50 (NCI-H460) was at most 4.00, the pIC50 (HCT-116) was 5.46 and the pIC50 (MCF7) was 5.70.
Work on `N#Cc1c(N2CCNCC2)c2ccc(N3CCNCC3)cc2n2c1nc1ncccc12` yielded a Ratio (Quadruplex DNA [1]) of 0.62, a Ratio [2] of 0.2 and a Ratio [3] of 0.1. For the same molecule, the pIC50 (NCI-H460) was at most 4.00, the Activity [4] was “Active” and the pIC50 (HCT-116) was at most 4.00. The Ratio [5] was under 0.1, the pIC50 (MCF7) was at most 4.00 and the log Ks [6] was 6.6. For the same molecule, the log Ks (Quadruplex DNA [7]) was 5.33, the Ratio [8] was 1.8 and the Activity [9] was “Active”. The Ratio (Calf thymus DNA [10]) was 0.1, the ΔTm (Calf thymus DNA [11]) was 6.6 °C and the Ratio (Quadruplex DNA [23]) was 0.89. For the same molecule, the pIC50 (HEK293) was under 4.00, the Ratio (Calf thymus DNA [12]) was 0 and the Activity [13] was “Active”. It also gave a log Ks [14] of 6.5, a log Ks (Quadruplex DNA [24]) of 7.16 and a ΔTm [15] of 11.1 °C. The log Ks (Calf thymus DNA [16]) was 6.4, the Ratio [17] was 1.3 and the ΔTm [18] was 13.5 °C. The Ratio [19] was 0, the log Ks [20] was 6.8 and the ΔTm (Quadruplex DNA [21]) was 2.5 °C.
Work on `N#Cc1c(N2CCNCC2)c2ccccc2n2c1nc1ncccc12` yielded a pIC50 (NCI-H460) of 5.15, a pIC50 (HCT-116) of 5.46 and a pIC50 (MCF7) of 5.52.
`N#Cc1c(N2CCCCC2)c2ccc(N3CCCCC3)cc2n2c1nc1ncccc12` was tested, and the pIC50 (NCI-H460) was 5.15, the pIC50 (HCT-116) was 5.74 and the pIC50 (MCF7) was 5.44.
`COc1cc([C@@H]2c3cc4c(cc3[C@@H](O[C@@H]3O[C@@H]5CO[C@@H](C)O[C@H]5[C@H](O)[C@H]3O)[C@H]3COC(=O)[C@H]23)OCO4)cc(OC)c1O` [ETOPOSIDE] gave a pIC50 (NCI-H460) of 7.00 and a pIC50 (MCF7) of 6.00.
In the case of `N#Cc1c(Cl)c2ccccc2n2c1nc1cccnc12`, the pIC50 (NCI-H460) was at most 4.00, the pIC50 (HCT-116) was 5.52 and the pIC50 (MCF7) was 5.22.
In the case of `CN(C)CCCNc1c(C#N)c2nc3ncccc3n2c2ccccc12`, the pIC50 (NCI-H460) was 5.70, the pIC50 (HCT-116) was 6.10 and the pIC50 (MCF7) was 5.49. It also gave a pIC50 (HEK293) of 5.59.
